{"source": "patent US9034906B2", "about": "“EP4 agonist” (Asahi Glass Company, Limited, priority 2008, dated 2015)", "key": {"[1]": {"experiment": "Effect on blood pressure and heart rate in mice", "assay_type": "in vivo, mouse", "settings": "ICR mice, intravenous 0.01 mg/kg, isoflurane anesthesia", "experimental": "Male ICR mice (5 weeks old, Japan SLC) were purchased, acclimated for 6 days and used for the test. The animals were treated and measured under isoflurane inhalation anesthesia (anesthesia introduced at 2.5%, maintained at 1.8-2.1%), while body temperature was kept at 37° C. with a Heat Controller (ATC-402, Unique Medical Co., Ltd.). A catheter for administration of test compounds was inserted into the left femoral vein, and another catheter was inserted into the right femoral artery and connected to a pressure transducer to record each parameter of hemodynamics.\nCompound F, the carboxylate form of compound F and BPS were intravenously administered at a dose of 0.01 mg/5 mL/kg, and the effect on the mean blood pressure and heart rate was evaluated with computer software for the analysis of hemodynamics (Fluclet, Dainippon Sumitomo Pharma Co., Ltd.). To the control group was intravenously administered a solvent (1.2% ethanol solution) at 5 mL/kg in the same manner. The results are expressed as a ratio of change in each parameter before and after the drug administration. Three to 6 animals were used for each group, and the results were expressed as average±standard deviation."}, "[2]": {"tested_on": "dextran sodium sulfate-induced colitis", "experiment": "Dextran sodium sulfate-induced colitis model in mice (C57BL/6)", "assay_type": "in vivo, mouse", "settings": "C57BL/6 mice, DSS, oral 0.3 mg/kg once a day", "experimental": "Whether or not an IP agonist has an effect on such colitis model was determined using a selective IP agonist, BPS.\nFemale C57BL/6 mice (6 weeks old, Japan SLC) were purchased, acclimated for 1 week and used for the study. Except the normal group, the mice were allowed to freely drink a 3 or 2 w/v % DSS (MP Biochemicals, Lot No. 5653H and 5464H, respectively) solution for 1 week to induce colitis. BPS at a dose of 0.3 mg/kg and compound F at doses of 0.3 and 1 mg/kg were orally administered once a day, daily, from the start day of DSS drinking (day 0) to one day before autopsy (day 9). To the control group was orally administered a solvent (1 vol % ethanol solution) at 10 mL/kg in the same manner. The consistency of the stool was graded from score 0 to 4, with normal (0), partly loose stool (1), loose stool (2) and diarrhea (4). The blood feces was also graded from score 0 to 4, with normal (0), partly blood feces (1), blood feces (2) and blood feces plus proctorrhagia (4). The sum of both grades was defined as the stool score (maximum 8). Furthermore, the length of the large intestine was measured in the same manner as in Example 23. Six to 10 animals were used for each group, and the results are shown in average±standard deviation."}, "[3]": {"tested_on": "anti-Thy-1 antibody-induced glomerulonephritis", "experiment": "Anti-Thy-1 antibody-induced glomerulonephritis model in rats", "assay_type": "in vivo, rat", "settings": "Wistar rats, oral 0.3 mg/kg twice a day", "experimental": "Male Slc: Wistar rats (6 weeks old, Japan SLC) were purchased, acclimated for 1 week and used for the study. Except the normal group, anti-Thy-1 antibody (mouse anti-CD90 antibody (UK-Serotech Ltd. Code:MCA47XZ, clone No: MRC OX-7, Lot No. 0303)) was administered once intravenously to the animals. A mixture of compound F and compound J (F:J=52:41, indicated as compound F/J) was orally administered from the day of the antibody administration (day 0) to day 6, daily, twice a day (morning and evening; each 0.3 mg/kg). After 3 days from the antibody administration, urine was collected for one day. On day 7 of the antibody administration, the animal was autopsied. The right kidney was isolated, weighed and fixed with formalin. Five to 8 animals were used for each group and the results were expressed as average±standard deviation."}, "human EP4": {"target": "T1, human EP4 (Homo sapiens, UniProt P35408)", "T1 construct": "expressed in transfected cells; host or cells: COS-7 (membranes)", "T1 sequence (P35408 whole entry)": "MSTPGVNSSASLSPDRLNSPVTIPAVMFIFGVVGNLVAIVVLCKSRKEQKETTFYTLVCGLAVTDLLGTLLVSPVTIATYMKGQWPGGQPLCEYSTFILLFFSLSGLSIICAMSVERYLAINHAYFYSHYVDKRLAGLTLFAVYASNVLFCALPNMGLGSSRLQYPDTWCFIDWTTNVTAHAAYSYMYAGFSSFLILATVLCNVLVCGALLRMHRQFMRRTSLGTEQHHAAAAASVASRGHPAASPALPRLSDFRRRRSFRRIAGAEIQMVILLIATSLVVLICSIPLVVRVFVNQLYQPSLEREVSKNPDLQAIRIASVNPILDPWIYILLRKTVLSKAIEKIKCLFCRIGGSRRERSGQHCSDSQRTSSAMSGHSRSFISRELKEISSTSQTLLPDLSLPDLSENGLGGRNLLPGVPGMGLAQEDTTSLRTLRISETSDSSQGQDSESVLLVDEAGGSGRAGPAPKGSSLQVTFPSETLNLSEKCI", "experiment": "Receptor affinity, tritium-labeled PGE2 binding to membranes of transfected COS-7 cells", "settings": "binding affinity ratio", "experimental": "PG receptor affinity of compound F and compound J of the present invention was evaluated. Compound F used was one synthesized in Example 9, and compound J was prepared by separating and purifying the compound synthesized in Example 14 with a column (the same preparations were used in the following Examples). COS-7 cells were transfected with the genes of mouse EP4, human EP1-4 or human IP to overexpress the receptor and then the cell membranes were collected. […] The dissociation constant Kd value was obtained and inhibition constant Ki value of each test compound was determined in a conventional method."}, "[4]": {"experiment": "In vitro metabolic stability: NADPH-independent β oxidation reaction in rat liver mitochondria fraction", "assay_type": "in vitro ADME", "settings": "37° C., 30 min, tested as isomer mixtures, average±SD of 3 experiments", "experimental": "A mixture of the compound F and compound J of the present invention described in Table 1 (F:J=52:41, synthesized in Example 14), and a mixture of compounds wherein the tetrazole groups at C-1 of compound F and compound J are respectively substituted by carboxylic acid (referred to as carboxylate form, F:J=54:34, synthesized in Example 15) were tested.\nFirst, a mitochondria fraction was prepared from the rat liver according to the following Reference A. Then, in reference to the method of […] et al. described in the following References B and C, an NADPH-independent β oxidation reaction was studied. The reaction was carried out at 37° C. for 30 min, and stopped with a methanol solution containing a suitable internal standard substance. Each compound was quantified by the internal standard method using a high performance liquid chromatography mass spectrometry apparatus (LC-MS/MS). The compound residual ratio after metabolic reaction of compounds F, J and each carboxylate form thereof in rat mitochondria fraction is shown in the following Table 2 in average±standard deviation of 3 experiments."}, "[5]": {"tested_on": "dextran sodium sulfate-induced colitis", "experiment": "Remission/relapse model of dextran sodium sulfate-induced colitis in mice, therapeutic", "assay_type": "in vivo, mouse", "settings": "compound F 1 mg/kg, SASP 100 mg/kg, oral once a day for 50 days", "from_the_text": "Next, therapeutic effect of compound F on colitis was studied in a chronic model. Female BALB/c mice, 6 weeks old, body weight about 20 g (Japan SLC) were purchased, acclimated for 1 week and used for the study. The mice were divided into a colitis induction group and a normal group. The colitis induction group was allowed to freely drink a 2.6 w/v % DSS (MP Biochemicals, M.W. 36,000-50,000, Lot No. 4556J) solution to induce colitis. On day 8 when the stool score (defined in Example 23) of the colitis induction group reached about 4.5, the mice were subdivided into a control group, a compound F 1 mg/kg administration group and a salazosulfapyridine (SIGMA, Lot No. 085K1930, hereinafter to be abbreviated as SASP) 100 mg/kg administration group. Then the mice were allowed to freely drink distilled water instead of DSS solution for 9 days (remission period). After the grouping, the stool score was evaluated every 3-4 days. […]\nCompound F at a dose of 1 mg/kg and SASP at a dose of 100 mg/kg were orally administered once a day, daily, for 50 days from the initial remission period (day 8 from the start of 2.6 w/v % DSS drinking) to the fifth remission period (day 57 from the start of 2.6 w/v % DSS drinking). […] The remission ratio (%) was calculated as a ratio of mice in remission in each group. […]"}, "T cell transfer colitis": {"tested_on": "T cell transfer colitis", "experiment": "CD4+CD25- T cell transfer colitis model in mice", "assay_type": "in vivo, mouse", "settings": "C.B-17/Icr-scid mice, oral 1 mg/kg once a day", "from_the_text": "The effect on Crohn's disease, another type of inflammatory bowel disease, was studied. T cell transfer model is well known as a Crohn's disease model, which develops chronic […] or enteritis (see: References F, G, H). In addition, it can also be regarded as an animal model of intestinal Behcet's disease or simple ulcer, suffering from similar intestinal ulcer accompanied by activation of T cells (see: References I, J).\nFemale BALB/cA Jcl mice, 6 weeks old, body weight 19-23 g (CLEA Japan, Inc.) and female C.B-17/Icr-scid mice (6 weeks old, CLEA Japan, Inc.) were purchased, acclimated for 1 week and used for the study.\nAfter laparotomy under ether anesthesia, BALB/cA Jcl mice were exsanguinated to death through the abdominal aorta and caudal vena cava, and the spleen was isolated. Splenocytes were prepared from the spleen and then CD4^+CD25^− T cells were prepared with a CD4^+ T cell Isolation Kit (No. 130-090-860, Milky Biotech Co., Ltd.) and CD25-Biotin antibody (No. 130-092-569, Milky Biotech Co., Ltd.). The cells were separated using the autoMACS Separator (Milky Biotech Co., Ltd.). The separated CD4^+CD25^− T cells were suspended in physiological phosphate buffer solution, and 2.5×10^5 cells per animal were intraperitoneally administered to C.B-17/Icr-scid mice to induce colitis.\nOne mg/kg of compound F or prednisolone was initially administered at 5 hr before transfer of CD4^+CD25^− T cells, and orally administered thereafter once a day, daily, for 20 days. To the control group was orally administered a solvent (1 vol % ethanol solution) at 10 mL/kg. A clinical endpoint was the sum of stool consistency score (0-5), fecal occult blood score (0-4) and body weight decrease score (0-5), termed as the Disease Activity Index score (hereinafter to be abbreviated as DAI score: highest score 14). The stool consistency score was graded for the hardness of stool as normal (0), slightly loose (1), somewhat loose (2), loose (3), considerably loose (4) and diarrhea (5). The fecal occult blood score was evaluated in the same manner as in Example 23. The body weight decrease score was graded for the changes in the body weight as increase (0), decrease of less than 3% (1), decrease of not less than 3% and less than 6% (2), decrease of not less than 6% and less than 9% (3), decrease of not less than 9% and less than 12% (4), and decrease of not less than 12% (5). Eight to 10 mice were used for each group and the results were expressed as average."}, "[6]": {"tested_on": "concanavalin A-induced hepatitis", "experiment": "Concanavalin A-induced hepatitis model in mice, prophylactic", "assay_type": "in vivo, mouse", "settings": "BALB/c mice, oral 1 hr before Con A; compound F 1 mg/10 mL/kg, prednisolone 5 mg/10 mL/kg", "experimental": "The prophylactic effect of compound F on hepatitis was investigated using concanavalin A (hereinafter Con A)-induced hepatitis model.\nBALB/c mice (female, 7 weeks old, Japan SLC) were purchased, acclimated for 1 week and used for the study. Except the no-induction group, Con A (type IV, Sigma-Aldrich) dissolved in saline was administered from the tail vein of the mice at a dose of 12.5 mg/10 mL/kg to induce hepatitis. Twenty hr later, the mice were subjected to laparotomy under ether anesthesia. A 0.5 mL of blood sample was collected from the caudal vena cava and heparinized plasma was obtained to measure plasma ALT and AST activities. Test substances were compound F (1 mg/10 mL solution), prednisolone (Nacalai Tesque, 5 mg/10 mL suspension (with 0.5 w/v % methylcellulose)) and water for injection (administered to the control group), which were orally administered at a volume of 10 mL/kg 1 hr before Con A injection. Seven to 9 animals were used for each group. After logarithmic transformation of the data, one-way analysis of variance was performed for statistical evaluation."}}, "data": [{"smiles": "CC#CCC(C)[C@H](O)/C=C/[C@@H]1[C@H]2c3cccc(CCCC(=O)O)c3O[C@H]2C[C@H]1O", "note": "(mixture of isomers) [BPS, beraprost sodium, reference compound]", "values": [{"measurement": "Effect on heart rate", "setting": "[1]", "value": "on the increase and remained high even after 10 min"}, {"measurement": "Maximum decrease ratio of mean blood pressure", "setting": "[1]", "value": 38, "unit": "%"}, {"measurement": "Effect on shortening of the large intestine", "setting": "[2]", "value": "no effect"}, {"measurement": "Effect on stool score", "setting": "[2]", "value": "tendency toward aggravation"}]}, {"smiles": "Cc1cccc(C(C)[C@H](O)/C=C/[C@@H]2[C@@H]3[C@H](C[C@H]2O)O/C(=C\\CCCc2nnn[nH]2)C3(F)F)c1", "note": "(mixture of isomers) [compound F/J, 4-[(Z)-(1S,5R,6R,7R)-6-[(1E,3R,4RS)-3-hydroxy-4-(m-tolyl)-1-pentenyl]-7-hydroxy-2-oxa-4,4-difluoro-bicyclo[3.3.0]octan-3-ylidene]-1-(tetrazol-5-yl)butane]", "values": [{"measurement": "24-hr urine protein", "setting": "[3]", "value": "lower value than control"}, {"measurement": "24-hr urine volume", "setting": "[3]", "value": "of the same level as the normal group"}, {"measurement": "Body weight", "setting": "[3]", "value": "shift similar to that of the control group"}, {"measurement": "Relative kidney weight", "setting": "[3]", "value": "lower than control and near the normal"}, {"measurement": "Renal histopathology: total glomerular cells, mesangial region and PCNA-positive cells in the glomerulus", "setting": "[3]", "value": "significantly suppressed the increase"}]}, {"smiles": "Cc1cccc([C@H](C)[C@H](O)/C=C/[C@@H]2[C@@H]3[C@H](C[C@H]2O)O/C(=C\\CCCc2nnn[nH]2)C3(F)F)c1", "note": "[Compound J, 4-[(Z)-(1S,5R,6R,7R)-6-[(1E,3R,4S)-3-hydroxy-4-(m-tolyl)-1-pentenyl]-7-hydroxy-2-oxa-4,4-difluoro-bicyclo[3.3.0]octan-3-ylidene]-1-(tetrazol-5-yl)butane]", "values": [{"measurement": "Affinity for human EP4 higher than to human IP", "setting": "human EP4", "value": 40, "unit": "fold"}, {"measurement": "Residual ratio of parent compound after β-oxidation reaction", "setting": "[4]", "value": "90.1 ± 6.9", "unit": "%"}]}, {"smiles": "O=C(O)c1cc(/N=N/c2ccc(S(=O)(=O)Nc3ccccn3)cc2)ccc1O", "note": "[SASP, salazosulfapyridine, reference compound]", "values": [{"measurement": "Effect on stool score in remission and relapse periods", "setting": "[5]", "value": "did not show a clear effect"}]}, {"smiles": "C[C@]12C=CC(=O)C=C1CC[C@@H]1[C@@H]2[C@@H](O)C[C@@]2(C)[C@H]1CC[C@]2(O)C(=O)CO", "note": "[prednisolone, reference compound]", "values": [{"measurement": "Effect on body weight decrease score", "setting": "T cell transfer colitis", "value": "clearly worsened the score"}, {"measurement": "Effect on fecal occult blood score", "setting": "T cell transfer colitis", "value": "suppressed an increase in the fecal occult blood score by almost the same level as the compound F administration"}, {"measurement": "Effect on stool consistency score", "setting": "T cell transfer colitis", "value": "failed to show a clear effect"}, {"measurement": "Effect on increase of plasma ALT and plasma AST activities", "setting": "[6]", "value": "significantly and strongly suppressed the increase"}]}]}
